Assay results reported in PubChem BioAssay AID284 (DTP/NCI, 2004).
Where “and” joins values, the source holds several entries; their conditions need not be identical. Identical values can stand only once. Inconclusive results and toxic doses are left out. How the source made its calls: active means survival T/C of 150% or more; inactive means T/C below 125% in these data. Starred links: 1 amine or outer side, 2 acyl side, 3 side chain; linkers in the order of their positions; H or OH if unused. Positions of bridges follow the written chain, without caps; N, C: chain ends. Non-standard residues stand in square brackets, D forms with d. Residues, ends and D or L forms follow the SMILES beside them. Chains are numbered I, II in the order given. Actinocin(9to1) = Cc1c2oc3c(C)ccc(C(=O)[*:1])c3nc-2c(C(=O)[*:2])c(N)c1=O; aThr = C[C@H](O)[C@H](N)C(=O)O; NMeV = CN[C@H](C(=O)O)C(C)C; Sar = CNCC(=O)O

Test system: BDF1 mice, L1210/MTX-resistant leukemia ip, survival T/C
Test: NCI In Vivo Anticancer Drug Screen. Data for tumor model L1210 Leukemia resistant to Methotrexate; NSC 740 (intraperitoneal) in B6D2F1 (BDF1) mice
Conditions: endpoint: mean survival time, higher = longer survival
Protocol: The antitumor activity of compounds was measured in mice bearing transplantable tumors. Survival or tumor size were measured and the results are expressed as the measurement made in the treated group (T) divided by the measurement made in the vehicle treated control group (C). The tumor model used in this assay is L1210 Leukemia resistant to Methotrexate; NSC 740 (intraperitoneal) in B6D2F1 (BDF1) mice

[1] = dose: 2.0 mg/kg/injection, schedule: Q01DX Z (ip), vehicle: carboxymethylcellulose (CMC)
[2] = dose: 6.0 mg/kg/injection, schedule: Q01DX010 (ip), vehicle: saline
[3] = dose: 12.0 mg/kg/injection, schedule: Q01DX010 (ip), vehicle: saline
[4] = dose: 12.5 mg/kg/injection, schedule: Q01DX Z (ip), vehicle: saline
[5] = dose: 10.0 mg/kg/injection, schedule: Q01DX010 (ip), vehicle: saline
[6] = dose: 20.0 mg/kg/injection, schedule: Q01DX010 (ip), vehicle: saline
[7] = dose: 7.5 mg/kg/injection, schedule: Q01DX Z (ip), vehicle: carboxymethylcellulose (CMC)
[8] = dose: 15.0 mg/kg/injection, schedule: Q01DX Z (ip), vehicle: carboxymethylcellulose (CMC)
[9] = dose: 5.0 mg/kg/injection, schedule: Q01DX010 (ip), vehicle: saline

Measured: T/C

Cc1c2oc3c(C)ccc(C(=O)N[C@@H]4C(=O)N[C@H](C(C)C)C(=O)N5CCC[C@H]5C(=O)N(C)CC(=O)N(C)[C@@H](C(C)C)C(=O)O[C@H]4C)c3nc-2c(C(=O)N[C@@H]2C(=O)N[C@H](C(C)C)C(=O)N3CCC[C@H]3C(=O)N(C)CC(=O)N(C)[C@@H](C(C)C)C(=O)O[C@H]2C)c(N)c1=O (I: [aThr][dV]P[Sar][NMeV] / II: [aThr][dV]P[Sar][NMeV]; ester I:1-I:C, II:1-II:C; linker I:N-II:N via Actinocin(9to1))
active: dose: 12.0 micrograms/kg/injection, schedule: Q01DX Z (ip), vehicle: saline 157 % of control
inactive: dose: 12.5 micrograms/kg/injection, schedule: Q01DX Z (ip), vehicle: saline 103 % of control | dose: 32.0 micrograms/kg/injection, schedule: Q01DX Z (ip), vehicle: saline 92 % of control and 104 % of control | dose: 50.0 micrograms/kg/injection, schedule: Q01DX Z (ip), vehicle: saline 114 % of control and 117 % of control | dose: 63.0 micrograms/kg/injection, schedule: Q01DX Z (ip), vehicle: saline 98 % of control and 104 % of control | dose: 125.0 micrograms/kg/injection, schedule: Q01DX Z (ip), vehicle: saline 117 % of control and 101 % of control

CC1(C)N=C(N)N=C(N)N1c1cccc(Br)c1
inactive: [1] 97 % of control | dose: 6.25 mg/kg/injection, schedule: Q01DX Z (ip), vehicle: carboxymethylcellulose (CMC) 109 % of control | dose: 12.5 mg/kg/injection, schedule: Q01DX Z (ip), vehicle: carboxymethylcellulose (CMC) 98 % of control | dose: 25.0 mg/kg/injection, schedule: Q01DX Z (ip), vehicle: carboxymethylcellulose (CMC) 98 % of control | dose: 50.0 mg/kg/injection, schedule: Q01DX Z (ip), vehicle: carboxymethylcellulose (CMC) 92 % of control

O=C1N(Cl)C(=O)C(c2ccc(Cl)cc2)(c2ccc(Cl)cc2)N1Cl
inactive: dose: 0.8 mg/kg/injection, schedule: Q01DX Z (ip), vehicle: methylcellulose (MC) 90 % of control | dose: 1.6 mg/kg/injection, schedule: Q01DX Z (ip), vehicle: methylcellulose (MC) 90 % of control | dose: 3.2 mg/kg/injection, schedule: Q01DX Z (ip), vehicle: methylcellulose (MC) 86 % of control and 98 % of control

CC(=O)Nc1ccc2nc3ccc(NC(C)=O)cc3[n+](-c3ccccc3)c2c1
inactive: [1] 107 % of control | dose: 3.0 mg/kg/injection, schedule: Q01DX Z (ip), vehicle: carboxymethylcellulose (CMC) 88 % of control | dose: 6.0 mg/kg/injection, schedule: Q01DX Z (ip), vehicle: carboxymethylcellulose (CMC) 100 % of control

C[C@H](N)C(=O)N[C@@H]1[C@H]2C(=C(O)C[C@@H](O)[C@@H]2O)C(=O)O[C@@H]1C
inactive: dose: 500.0 mg/kg/injection, schedule: Q01DX Z (ip), vehicle: saline 120 % of control | dose: 1000.0 mg/kg/injection, schedule: Q01DX Z (ip), vehicle: saline 102 % of control and 110 % of control | dose: 1200.0 mg/kg/injection, schedule: Q01DX Z (ip), vehicle: saline 121 % of control and 122 % of control
active: dose: 600.0 mg/kg/injection, schedule: Q01DX Z (ip), vehicle: saline 174 % of control and 187 % of control

CCCCNc1ncnc2c1cnn2C
inactive: dose: 31.25 mg/kg/injection, schedule: Q01DX010 (ip), vehicle: saline 98 % of control and 102 % of control | dose: 62.5 mg/kg/injection, schedule: Q01DX010 (ip), vehicle: saline 90 % of control

O[C@H](CN1CC1)[C@@H](O)CN1CC1
active: dose: 0.37 mg/kg/injection, schedule: Q01DX Z (ip), vehicle: saline 151 % of control
inactive: dose: 0.01 mg/kg/injection, schedule: Q01DX Z (ip), vehicle: saline 99 % of control | dose: 0.02 mg/kg/injection, schedule: Q01DX Z (ip), vehicle: saline 105 % of control

N=C(N)c1ccc(Nc2ccc(C(=N)N)cc2)cc1
inactive: dose: 1.5 mg/kg/injection, schedule: Q01DX010 (ip), vehicle: saline 101 % of control | dose: 3.0 mg/kg/injection, schedule: Q01DX010 (ip), vehicle: saline 97 % of control | [2] 102 % of control | dose: 7.5 mg/kg/injection, schedule: Q01DX Z (ip), vehicle: water 98 % of control | [3] 91 % of control | dose: 12.5 mg/kg/injection, schedule: Q01DX Z (ip), vehicle: water 86 % of control

O=C(Nc1ccc(C2=NCCN2)cc1)c1ccc(C(=O)Nc2ccc(C3=NCCN3)cc2)c([N+](=O)[O-])c1
active: [2] 259 % of control | dose: 8.0 mg/kg/injection, schedule: Q01DX010 (ip), vehicle: saline 284 % of control | [3] 201 % of control
inactive: dose: 6.3 mg/kg/injection, schedule: Q01DX Z (ip), vehicle: saline 122 % of control | [4] 97 % of control | dose: 18.0 mg/kg/injection, schedule: Q01DX010 (ip), vehicle: saline 107 % of control | dose: 25.0 mg/kg/injection, schedule: Q01DX Z (ip), vehicle: saline 116 % of control and 96 % of control

CSc1ncnc2c1ncn2C1OC(CO)C(O)C1O (stereo not drawn)
inactive: dose: 0.5 mg/kg/injection, schedule: Q01DX Z (ip), vehicle: saline 102 % of control | dose: 1.0 mg/kg/injection, schedule: Q01DX Z (ip), vehicle: saline 99 % of control | dose: 2.0 mg/kg/injection, schedule: Q01DX Z (ip), vehicle: saline 105 % of control | dose: 4.0 mg/kg/injection, schedule: Q01DX Z (ip), vehicle: saline 112 % of control | dose: 6.25 mg/kg/injection, schedule: Q01DX Z (ip), vehicle: saline 97 % of control | [5] 107 % of control | dose: 12.5 mg/kg/injection, schedule: Q01DX010 (ip), vehicle: saline 109 % of control | [4] 93 % of control | dose: 15.0 mg/kg/injection, schedule: Q01DX010 (ip), vehicle: saline 106 % of control | [6] 102 % of control

O=c1[nH]c(=O)n(C2CC(O)C(CO)O2)cc1I (stereo not drawn)
inactive: dose: 3.75 mg/kg/injection, schedule: Q01DX Z (ip), vehicle: carboxymethylcellulose (CMC) 102 % of control | [7] 108 % of control | [8] 108 % of control | dose: 30.0 mg/kg/injection, schedule: Q01DX Z (ip), vehicle: carboxymethylcellulose (CMC) 106 % of control

CS(=O)(=O)OCCCl
inactive: dose: 7.5 mg/kg/injection, schedule: Q01DX Z (ip), vehicle: saline 107 % of control | dose: 10.0 mg/kg/injection, schedule: Q01DX Z (ip), vehicle: saline 111 % of control | dose: 15.0 mg/kg/injection, schedule: Q01DX Z (ip), vehicle: saline 109 % of control | dose: 20.0 mg/kg/injection, schedule: Q01DX Z (ip), vehicle: saline 111 % of control | dose: 50.0 mg/kg/injection, schedule: Q01DX Z (ip), vehicle: saline 86 % of control

CN(C)c1ccc(/C=C/c2ccnc3ccccc23)cc1
inactive: dose: 2.5 mg/kg/injection, schedule: Q01DX Z (ip), vehicle: saline 121 % of control | [9] 104 % of control | dose: 5.0 mg/kg/injection, schedule: Q01DX Z (ip), vehicle: saline 101 % of control | [5] 95 % of control

Nc1nc(=S)c2[nH]cnc2[nH]1
inactive: dose: 0.75 mg/kg/injection, schedule: Q01DX Z (ip), vehicle: carboxymethylcellulose (CMC) 97 % of control | dose: 1.25 mg/kg/injection, schedule: Q01DX010 (ip), vehicle: saline 99 % of control and 106 % of control | dose: 1.5 mg/kg/injection, schedule: Q01DX Z (ip), vehicle: carboxymethylcellulose (CMC) 88 % of control | dose: 2.5 mg/kg/injection, schedule: Q01DX010 (ip), vehicle: saline 90 % of control | dose: 2.5 mg/kg/injection, schedule: Q01DX Z (ip), vehicle: carboxymethylcellulose (CMC) 102 % of control | [9] 92 % of control | dose: 5.0 mg/kg/injection, schedule: Q01DX Z (ip), vehicle: carboxymethylcellulose (CMC) 107 % of control | [7] 108 % of control | dose: 10.0 mg/kg/injection, schedule: Q01DX Z (ip), vehicle: carboxymethylcellulose (CMC) 98 % of control | [8] 88 % of control

CS(=O)(=O)OCC(O)C(O)COS(C)(=O)=O (stereo not drawn)
inactive: dose: 18.8 mg/kg/injection, schedule: Q01DX Z (ip), vehicle: saline 88 % of control | dose: 37.5 mg/kg/injection, schedule: Q01DX Z (ip), vehicle: saline 90 % of control | dose: 75.0 mg/kg/injection, schedule: Q01DX Z (ip), vehicle: saline 101 % of control

CC1CCOS(=O)O1 (stereo not drawn)
inactive: [5] 100 % of control | [6] 100 % of control | dose: 40.0 mg/kg/injection, schedule: Q01DX010 (ip), vehicle: saline 90 % of control
